Results on 15 compounds are retold here after PubChem BioAssay (NCI).

What all share (experiment): inhibition of tumour cell growth, NCI panel, 48 h
The subject of assay [1] is ACHN renal.
Assay [2] has as its system OVCAR-3 ovarian.
The subject of assay [3] is UACC-62 melanoma.
Assay [4] concerns CAKI-1 renal.
For assay [5], the system named is SF-295 CNS.
Assay [6] relates to HOP-62 NSCLC.
For assay [7], the system named is PC-3 prostate.
The subject of assay [8] is K-562 leukemia.
Assay [9] deals with MDA-MB-435.
Assay [10] deals with SNB-75 CNS.

Structures are written as SMILES.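 In this assay, cells in 96-well plates receive the compound at five concentrations for 48 hours. Endpoints are linearly interpolated between the surrounding concentrations. The concentration for 50% growth inhibition is given as GI50. TGI marks complete inhibition of growth.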

In the case of `CC/C=C\C[C@@H]1C/C=C2/C(=O)C=C[C@H]2C/C=C\CCCC(=O)O1`, the GI50 is 183 nM in assay [1]; 428 nM in assay [2]; 735 nM in assay [3]; 420 nM in assay [4]; 1180 nM in assay [5]; 1070 nM in [6]. The GI50 was 535 nM in [7], 239 nM in assay [8], 250 nM in [9] and 1180 nM in assay [10]. Also, the TGI in assay [1] came to 372 nM; in assay [2], 1380 nM; in assay [3], 2660 nM; in [4], 1770 nM; in assay [5], 2730 nM; in [6], 3680 nM. The TGI is 2390 nM in assay [7], 724 nM in assay [8], 845 nM in assay [9] and 2600 nM in assay [10].
On to `Cc1cc(C)c(C(=O)CC(=O)c2cccnc2)c(C)c1`, for which the GI50 in [1] is 6280 nM; in assay [2], 5780 nM; in [3], 4520 nM; in assay [4], 1340 nM; in assay [5], 2780 nM; in assay [6], 6320 nM. Also, the GI50 in assay [7] is 8730 nM; in [8], 3710 nM; in assay [9], 7480 nM; in [10], 26600 nM. In addition, the TGI is greater than 100000 nM in assay [1]; 77400 nM in assay [2]; 41800 nM in assay [3]; 5520 nM in [4]; 83500 nM in [5]; greater than 100000 nM in assay [6]. In addition, the TGI in assay [7], in [8], in [9] and in [10] was greater than 100000 nM each time.
On to `Nc1ncc(-c2cnn(CCO)c2)c2scc(-c3ccc(NC(=O)Nc4cccc(F)c4)cc3)c12`, for which the GI50 is 289 nM in assay [1]; 1160 nM in assay [2]; 370 nM in assay [3]; 320 nM in [4]; less than 37.3 nM in assay [5]; 418 nM in [6]. The GI50 in assay [7] is 288 nM; in assay [8] it was 39.9 nM; in assay [9], 209 nM; in [10], 271 nM. Moreover, the TGI in assay [1] was 4750 nM; in assay [2], 5870 nM; in assay [3], 1780 nM; in [4] it was 2200 nM; in assay [5] it was 762 nM; in [6], 2710 nM. For the same compound, the TGI in [7] is 3280 nM; in assay [8], 15100 nM; in assay [9], 1830 nM; in assay [10], 1740 nM.
Regarding `COc1ccc2c(c1)C(=O)c1c-2n(CCCn2ccnc2)c(=O)c2ccccc12`, the GI50 in assay [1] was 144 nM; in [2] it was 901 nM; in [3], 403 nM; in assay [4], 211 nM; in assay [5] it was 101 nM; in assay [6], 137 nM. Also, the GI50 was 765 nM in [7], 548 nM in [8], 670 nM in assay [9] and 843 nM in [10]. The TGI was 1040 nM in [1]; 1860 nM in [3]; 1340 nM in [4]; 2130 nM in assay [5]; 781 nM in assay [6]; greater than 100000 nM in assay [7]. Moreover, the TGI in assay [8] is greater than 100000 nM; in [9], 3240 nM; in assay [10], greater than 22400 nM.
In the case of `COc1ccc(C(=O)COc2cccc(/C=C3\COc4ccc5ccccc5c4C3=O)c2)cc1`, the GI50 in assay [1] is 80700 nM; in assay [2], 3120 nM; in assay [3] it was 16300 nM; in assay [4], 8240 nM; in assay [5] it was 2870 nM; in assay [6], 29700 nM. In addition, the GI50 is 3500 nM in assay [7], 3630 nM in assay [8], 4080 nM in [9] and 2390 nM in assay [10]. The TGI was greater than 100000 nM in [1]; 11500 nM in assay [2]; greater than 100000 nM in assay [3]; 78300 nM in assay [4]; 63600 nM in [5]; greater than 100000 nM in assay [6]. The TGI was greater than 100000 nM in [7], 66700 nM in [8], 41300 nM in [9] and 11600 nM in assay [10].
As to `CC(=O)OC1CC(O)C23COC(O)C1(C)C2CC(O)C1(C)C3C(=O)C(O)C2(C)C(c3ccoc3)CC3OC321` (configuration not stated), the GI50 in assay [1] is 685 nM; in assay [2], 41200 nM; in [3], less than 10 nM; in [4], 2970 nM; in assay [5], 52.2 nM; in assay [6], 685 nM. Besides, the GI50 in assay [7] was 11.4 nM; in assay [8], less than 10 nM; in assay [9], less than 15.2 nM; in [10], less than 39.7 nM. In addition, the TGI in assay [1] is greater than 100000 nM; in [2], greater than 100000 nM; in [3] it was less than 12.9 nM; in assay [4] it was greater than 100000 nM; in assay [6] it was greater than 100000 nM; in assay [7], greater than 100000 nM. In addition, the TGI in assay [9] and in assay [10] was greater than 100000 nM each time.
`CC(C)c1ccc(C(=O)Nc2sc3c(c2C(N)=O)CCC(=O)C3)cc1`: the GI50 in assay [1] is 343 nM; in assay [2] it was 421 nM; in [3] it was 460 nM; in assay [4] it was 334 nM; in [5] it was 1420 nM; in assay [6] it was 3040 nM. Further, the GI50 was 242 nM in assay [7], 207 nM in assay [8], 1490 nM in [9] and 795 nM in assay [10]. For the same compound, the TGI was 1110 nM in assay [1]; 1510 nM in [2]; 1910 nM in assay [3]; 1550 nM in [4]; 3610 nM in assay [5]; 18100 nM in assay [6]. Also, the TGI in assay [7] came to 1310 nM; in [8], 3830 nM; in assay [9] it was 3620 nM; in assay [10] it was 2650 nM.
Consider `CCN(CC)c1sc(N(CC)CC)c2c1SSSSS2`, for which the GI50 in assay [1] is 1070 nM; in assay [2], 1440 nM; in assay [3], 721 nM; in assay [4], 1490 nM; in [5], 2090 nM; in [6], 2610 nM. The GI50 is 2050 nM in [7], 1640 nM in assay [8], 844 nM in assay [9] and 2710 nM in assay [10]. Also, the TGI is 3280 nM in assay [1]; 3390 nM in assay [2]; 1870 nM in assay [3]; 3780 nM in assay [4]; 4040 nM in [5]; 4990 nM in [6]. Further, the TGI is 4260 nM in assay [7], greater than 100000 nM in [8], 2090 nM in assay [9] and 4520 nM in assay [10].
Regarding `CN(C)CCCn1c2c(c3ccccc3c1=O)C(=O)c1ccccc1-2`, the GI50 in assay [1] is 507 nM; in assay [2], 1670 nM; in [3] it was 516 nM; in assay [4], 583 nM; in assay [5] it was 1120 nM; in assay [6], 1740 nM. In addition, the GI50 in [7] was 2270 nM; in assay [8] it was 1900 nM; in assay [9], 2820 nM; in [10] it was 14200 nM. For the same compound, the TGI in assay [1] worked out at 2150 nM; in assay [2] it was 6790 nM; in assay [3] it was 1960 nM; in [4], 2440 nM; in [5], 3740 nM; in assay [6], 6610 nM. Besides, the TGI in assay [7] is 13700 nM; in [8], 8010 nM; in assay [9], 12000 nM; in assay [10], 33100 nM.
As for `CN(C)CCNC(=O)c1cccc(C(=O)Nc2ccccc2)c1[N+](=O)[O-]`, the TGI in assay [1], in assay [2], in assay [3], in [4], in [5] and in assay [6] was greater than 100000 nM each time. Also, the TGI in assay [7], in assay [8], in assay [9] and in assay [10] was greater than 100000 nM each time.
In the case of `CCN(CC)c1ccc(C(=N)c2ccc(N(CC)CC)cc2)cc1`, the GI50 in assay [1] was 784 nM; in assay [2] it was 270 nM; in assay [3], 621 nM; in assay [4], 588 nM; in assay [5], 438 nM; in assay [6], 831 nM. The GI50 in assay [7] was 492 nM; in [8], 255 nM; in [9], 318 nM; in [10] it was 849 nM. In addition, the TGI turned out to be 6430 nM in assay [1]; 995 nM in assay [2]; 2240 nM in [3]; 5850 nM in assay [4]; 2020 nM in assay [5]; 2600 nM in [6]. Also, the TGI in assay [7] stood at 4760 nM; in [8] it was 1670 nM; in [9], 1300 nM; in assay [10] it was 6890 nM.
For the compound `COc1cc2oc(-c3ccc(O)cc3)cc(=O)c2c(OC)c1OC`, the TGI in assay [1], in [2], in assay [3], in assay [4], in [5] and in [6] was greater than 100000 nM each time. In addition, the TGI in assay [7], in [8], in assay [9] and in [10] was greater than 100000 nM throughout.
On to `NCCCC[C@@H]1NC(=O)[C@H]2CCCN2C(=O)[C@H](Cc2ccccc2)NC(=O)[C@H](Cc2ccccc2)CNC1=O`, for which the GI50 in assay [1], in assay [2], in assay [3], in [4], in assay [5] and in assay [6] was greater than 100000 nM throughout. For the same compound, the GI50 in assay [7], in assay [8], in [9] and in [10] was greater than 100000 nM each time. For the same compound, the TGI in [1], in assay [2], in [3], in [4], in [5] and in assay [6] was greater than 100000 nM each time. Moreover, the TGI in [7], in assay [8], in assay [9] and in assay [10] was greater than 100000 nM throughout.
For the compound `CCS(=O)(=O)c1ccc(OC)c(Nc2ncc(-c3cccc(C(C)=O)c3)o2)c1`, the GI50 in assay [1] is 11400 nM; in assay [2] it was greater than 25000 nM; in [3], greater than 25000 nM; in assay [4], 8710 nM; in assay [5], 23100 nM; in assay [6], greater than 25000 nM. Further, the GI50 was greater than 25000 nM in assay [7], 7560 nM in assay [8], greater than 25000 nM in assay [9] and 2730 nM in [10]. Also, the TGI in assay [1], in assay [2], in assay [3], in assay [4], in assay [5] and in assay [6] was greater than 25000 nM each time. Besides, the TGI in assay [7] was greater than 25000 nM; in assay [8] it was greater than 25000 nM; in [9], greater than 25000 nM; in assay [10], 23000 nM.
For the compound `CN/N=C(/CCN1CCCC1)CC(c1ccccc1)c1c(O)c2ccccc2oc1=O` (configuration not stated), the TGI in assay [1], in [2], in [3], in assay [4], in assay [5] and in assay [6] was greater than 100000 nM throughout. Also, the TGI in assay [7] was greater than 100000 nM; in [8], greater than 100000 nM; in [9], greater than 100000 nM; in assay [10], greater than 31600 nM.
